Earlier results in patent US20090163599A1, “Mif adsorbant” (priority 2004, published 2009).

Biological target: T1, dopachrome tautomerase activity of MIF (Homo sapiens, UniProt P14174)
T1 sequence (P14174 2-115 limits assumed): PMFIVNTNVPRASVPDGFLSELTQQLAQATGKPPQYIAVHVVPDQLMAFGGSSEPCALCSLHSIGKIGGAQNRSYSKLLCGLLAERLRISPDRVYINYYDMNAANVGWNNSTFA
Conditions: known from Swope et al, J Biol Chem 273: 14877-14884, 1998

| inhibiting effect on the dopachrome tautomerase activity of MIF | Compound |
| --- | --- |
| strong inhibiting effect | CCCCCCS [hexane thiol] |
| strong inhibiting effect | CCCCCCSC[C@H](NC(=O)CC[C@H](N)C(=O)O)C(=O)NCC(=O)O [S-hexylglutathione] |
